Results as given in US6387431B1, “Dicarboalkoxy dioxolanes as flavoring agent releasing compounds” (Givaudan SA, priority 2000, dated 2002).

Experiments:
[1] = Stability (decomposition) in a still lemon beverage, hexane extraction and GC; format: physicochemical; details: for half life t½: 100 ppm, over 5 days, first order kinetic assumed
Description: The stability of compound 1 of Example 1 was tested in a still lemon beverage prepared by 1+5 dilution of lemon/lime-lemon beverage concentrate (210 g) with water ([…]). Formula of the lemon/lime-lemon beverage concentrate used: [table] Three 100 ml solutions containing each 100 ppm of the compound 1 were prepared and the decomposition of 1 was determined over a period of 5 days by extraction of 5 ml test solutions samples with hexane, spiked with 100 ppm of ethyl myristate. The extracts were analyzed by GC (Hewlett Packard 6890; column: DB-5, 30 m, 0.32 mm i.d.) and for each data point a mean value based on three measurements was calculated.

[2] = aqueous solutions and acidic aqueous alcoholic and non-alcoholic beverages; cited from earlier work

| half life t½ [1] [h] | SMILES | hydrolysis [2] | further results |
| --- | --- | --- | --- |
| 96 | CC(C)=CCCC(C)=CC1O[C@@H](C(=O)OC(C)C)[C@H](C(=O)OC(C)C)O1 (mixture of isomers) [compound 1, (E/Z)-(4R,5R)-2-(2,6-Dimethyl-hepta-1,5-dienyl)-[1,3]dioxolane-4,5-dicarboxylic acid diisopropylester] | – | – |
| – | CCOC(=O)[C@@H]1OC(C=C(C)CCC=C(C)C)O[C@H]1C(=O)OCC (mixture of isomers) [compound 3, (E/Z)-(4R,5R)-2-(2,6-Dimethyl-hepta-1,5-dienyl)-[1,3]dioxolane-4,5-dicarboxylic acid diethylester] | – | half life ([1]; determined as in Example 6): 21 h |
| 264 | CCCOC(=O)[C@@H]1OC(C=C(C)CCC=C(C)C)O[C@H]1C(=O)OCCC (mixture of isomers) [compound 5, (E/Z)-(4R,5R)-2-(2,6-Dimethyl-hepta-1,5-dienyl)-[1,3]dioxolane-4,5-dicarboxylic acid dipropylester] | – | – |
| – | COC(C=C(C)CCC=C(C)C)OC [citral dimethyl acetal] | rapidly hydrolized | – |
| – | CC(C)=CCC/C(C)=C/C1OCC(C)O1 (centres unmarked) [citral propylene glycol acetal] | rapidly hydrolized | – |
